Assay results from ChEMBL document CHEMBL1201862, “PubChem BioAssay data set” (2004).
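Grown in 96-well plates, cells were treated for 48 hours with each compound at five concentrations. Insufficient inhibition: endpoint recorded as highest concentration tested. The concentration for 50% growth inhibition is given as GI50.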 Activity calls are given as the source filed them. Rule as the data show it: active = GI50 up to about 1.1 µM and inactive = higher.

What was measured:
Assay in all cases: DTP human tumour cell line panel, 48 h
786-0 = system: 786-0
KM12 = system: KM12
A549 = system: A549
OVCAR-5 = system: OVCAR-5
SNB-19 = system: SNB-19
NCI/ADR-RES = system: NCI/ADR-RES
HT-29 = system: HT-29
U-251 = system: U-251
SNB-75 = system: SNB-75
Malme-3M = system: Malme-3M
MDA-MB-435 = system: MDA-MB-435
CAKI-1 = system: CAKI-1
SR = system: SR
OVCAR-3 = system: OVCAR-3
MOLT-4 = system: MOLT-4
OVCAR-4 = system: OVCAR-4
SF-268 = system: SF-268
SF-295 = system: SF-295
DU-145 = system: DU-145
SK-OV-3 = system: SK-OV-3

Row | SMILES | GI50 (786-0) | GI50 (KM12) | GI50 (A549) | GI50 (OVCAR-5) | GI50 (SNB-19) | GI50 (NCI/ADR-RES) | GI50 (HT-29) | GI50 (U-251) | GI50 (SNB-75) | GI50 (Malme-3M) | GI50 (MDA-MB-435) | GI50 (CAKI-1) | GI50 (SR) | GI50 (OVCAR-3) | GI50 (MOLT-4) | GI50 (OVCAR-4) | GI50 (SF-268) | GI50 (SF-295) | GI50 (DU-145) | GI50 (SK-OV-3)
1 | O=C(Nc1cc2cc([N+](=O)[O-])ccc2oc1=O)c1cccs1 | 89.5 µM (inactive) | 24.5 µM (inactive) | 43.8 µM (inactive) | > 100 µM (inactive) | > 100 µM (inactive) | 62.2 µM (inactive) | 39.5 µM (inactive) | 19.8 µM (inactive) | 2.78 µM (inactive) | > 100 µM (inactive) | 25.2 µM (inactive) | 48.6 µM (inactive) | 35 µM (inactive) | 97.5 µM (inactive) | 25.3 µM (inactive) | 43.6 µM (inactive) | 33.2 µM (inactive) | 54.2 µM (inactive) | > 100 µM (inactive) | –
2 | CCCC/C=C1/CCC(CN(C)C)C1=O (centres undefined) | 1.55 µM (inactive) | 0.673 µM (active) | 6.58 µM (inactive) | 6.01 µM (inactive) | 5.97 µM (inactive) | 2.64 µM (inactive) | – | 1.97 µM (inactive) | 3.21 µM (inactive) | 1.98 µM (inactive) | 11 µM (inactive) | 0.745 µM (active) | 0.456 µM (active) | 1.94 µM (inactive) | – | 1.92 µM (inactive) | 2.47 µM (inactive) | 6.71 µM (inactive) | 15.6 µM (inactive) | 12.9 µM (inactive)
3 | O[C@H]1[C@H](O)[C@@H](O)[C@@]2(O)C[C@@H](O)[C@@H]1N2 | > 100 µM (inactive) | > 100 µM (inactive) | > 100 µM (inactive) | > 10 µM (inactive) | > 100 µM (inactive) | > 100 µM (inactive) | > 100 µM (inactive) | > 100 µM (inactive) | > 100 µM (inactive) | > 100 µM (inactive) | > 100 µM (inactive) | – | > 100 µM (inactive) | > 100 µM (inactive) | > 100 µM (inactive) | > 100 µM (inactive) | > 100 µM (inactive) | > 100 µM (inactive) | > 100 µM (inactive) | > 100 µM (inactive)
4 | COc1cc2c(cc1OCCCCN1CCN(CCCCOc3cc4c(cc3OC)C(=O)N3CCC[C@H]3C=N4)CC1)N=C[C@@H]1CCCN1C2=O | < 0.014 µM (active) | 0.0628 µM (active) | 0.0923 µM (active) | 0.0417 µM (active) | – | 1.94 µM (inactive) | 0.0443 µM (active) | 0.0167 µM (active) | 0.0262 µM (active) | 0.031 µM (active) | 0.0508 µM (active) | 0.0318 µM (active) | 1 µM (active) | 0.0372 µM (active) | < 0.01 µM (active) | 0.0776 µM (active) | < 0.0289 µM (active) | < 0.0352 µM (active) | 0.0361 µM (active) | 4.45 µM (inactive)
5 | COc1ccc(/C=C2/C(=O)N(/C=C3\C(=O)Oc4ccccc4C3=O)/C(=N/C(C)=O)N2C)cc1OC | > 100 µM (inactive) | > 100 µM (inactive) | > 100 µM (inactive) | > 100 µM (inactive) | – | > 100 µM (inactive) | > 100 µM (inactive) | > 100 µM (inactive) | 45.9 µM (inactive) | > 100 µM (inactive) | > 100 µM (inactive) | > 100 µM (inactive) | > 100 µM (inactive) | 0.143 µM (active) | > 100 µM (inactive) | > 100 µM (inactive) | > 100 µM (inactive) | > 100 µM (inactive) | > 100 µM (inactive) | > 100 µM (inactive)
